PubChem BioAssay (NCI)
“And” between values parts separate entries of the source, which are not always exact repeats. Equal entries are not always repeated.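 The compound was tested at five concentrations on cells cultured in 96-well plates, with a 48-hour exposure period. GI50 marks 50% less growth. Definition used: TGI = concentration required for complete inhibition of growth.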

Columns and labels:
Assay in all cases: growth of human tumour cells (NCI), 48 h
786-0 renal = tested on: 786-0 renal
HCC-2998 colon = tested on: HCC-2998 colon
HCT-116 colon = tested on: HCT-116 colon
HT29 colon = tested on: HT29 colon
MDA-MB-231 breast = tested on: MDA-MB-231 breast
NCI-H522 lung = tested on: NCI-H522 lung
OVCAR-8 ovarian = tested on: OVCAR-8 ovarian
RXF 393 renal = tested on: RXF 393 renal
SF-295 CNS = tested on: SF-295 CNS
U251 CNS = tested on: U251 CNS

Row | Compound | GI50 (786-0 renal) [µM] | TGI (786-0 renal) [µM] | GI50 (HCC-2998 colon) [µM] | TGI (HCC-2998 colon) | GI50 (HCT-116 colon) | TGI (HCT-116 colon) | GI50 (HT29 colon) [µM] | TGI (HT29 colon) | GI50 (MDA-MB-231 breast) [µM] | TGI (MDA-MB-231 breast) [µM] | GI50 (NCI-H522 lung) [µM] | TGI (NCI-H522 lung) | GI50 (OVCAR-8 ovarian) [µM] | TGI (OVCAR-8 ovarian) | GI50 (RXF 393 renal) [µM] | TGI (RXF 393 renal) | GI50 (SF-295 CNS) [µM] | TGI (SF-295 CNS) | GI50 (U251 CNS) [µM] | TGI (U251 CNS)
1 | CC[C@@]1(O)C(=O)N(CCN(C)C)Cc2c1cc1n(c2=O)Cc2cc3ccccc3nc2-1 | 8.09 | > 100 | 39.7 | > 100 µM | 12.4 µM | > 100 µM | 24.6 | > 100 µM | > 100 | > 100 | 7.05 | > 89 µM | 12.5 | > 100 µM | 71.4 | > 100 µM | 5.63 | > 100 µM | 18.9 | > 100 µM
2 | CCCCCCCC(=O)O[C@H]1[C@H]2[C@@H](CC1(C)C)C(=O)[C@]13O[C@H]1C(=O)[C@]1(CO1)[C@]23C | – | 14.1 | 9.4 | 21.3 µM and 13.2 µM | 3.07 µM and 1.63 µM | 12.4 µM and 3.8 µM | – | 14.4 µM and 14.9 µM | – | 44.5 | – | 2.9 µM and 3.85 µM | 8.06 | 24.5 µM and 8.05 µM | 1.93 | 3.97 µM and 5.31 µM | 20.2 | 43.7 µM and 36.5 µM | 5.8 | 11.9 µM and 22.8 µM
3 | O=C(O)CNCc1c2ccccc2nc2ccccc12 | – | > 95.4 | – | > 100 µM | – | > 45.5 µM | – | > 84.8 µM | – | > 100 | – | 57.5 µM | – | > 100 µM | – | > 78.3 µM | – | > 100 µM | – | > 100 µM
4 | COc1cc2cc(Oc3ccc(NC(=O)Nc4cc(C(F)(F)F)cc(C(F)(F)F)c4)cc3)c(C)nc2cc1OCCN1CCCCC1 | 1.71 | 3.25 | 1.78 | 3.29 µM | 1.75 µM | 3.24 µM | 1.83 | 3.37 µM | 1.52 | 2.99 | 1.72 | 3.46 µM | 1.87 | 3.72 µM | 1.59 | 3.2 µM | 1.83 | 3.38 µM | 1.79 | 3.41 µM
5 | O=C(Nc1ccc(I)cc1F)c1cc(F)ccc1O | 2.19 | 6.67 | 3.1 | 26.4 µM | 0.352 µM | 1.46 µM | 3.44 | > 100 µM | 0.513 | 4.69 | 0.304 | – | 1.07 | 48.7 µM | 0.732 | 4.05 µM | 1.86 | 3.74 µM | 0.578 | > 100 µM
6 | CC(=O)O[C@H]1Cc2c([nH]c3ccccc23)[C@@H](c2ccc(Cl)cc2)N1C(=O)CCNC(C)(C)C | 3.64 | 7.92 | 3.65 | 7.85 µM | 1.64 µM | 6.32 µM | 1.59 | 5.57 µM | 1.79 | 6.07 | 5.82 | 11 µM | 4.86 | 9.45 µM | 2.52 | 6.83 µM | 4.54 | 9.01 µM | 4.33 | 8.62 µM
7 | O=C1c2ccccc2-c2c1c1ccccc1c(=O)n2CCCNCCO | 0.234 | 10.9 | 1.28 | 5.74 µM | 0.298 µM | 3.53 µM | 0.33 | 6.68 µM | 1.5 | 6.55 | 0.689 | 4.33 µM | 0.239 | 11.6 µM | 0.585 | 4.03 µM | 0.568 | 4.02 µM | 0.302 | 5.61 µM
8 | COC(=O)C1=C(C)NC(C)=C(C(=O)OC)C1c1ccccc1[N+](=O)[O-] | > 100 | > 100 | > 100 | > 100 µM | > 100 µM | > 100 µM | > 100 | > 100 µM | 70.7 | > 100 | > 100 | > 100 µM | 64.8 | > 100 µM | 36 | > 100 µM | 57.8 | > 100 µM | > 100 | > 100 µM
